molecular target: Transthyretin (Homo sapiens, UniProt P02766, V50M); assay: Inhibition of acid-mediated aggregation of TTR V30M mutant (unknown origin) expressed in Escherichia coli pretreated for 30 mins at pH 7 followed by protein dilution in acetate buffer and further incubated for 96 hrs at pH 4.6 by thioflavin-T fluorescence assay

**Q.** How did the IC50 turn out when `O=C(O)c1ccc2c(=O)c3cc(Cl)ccc3oc2c1` was run?
**A.** The IC50 was 10 µM.

**Q.** `O=C(O)c1ccc2c(c1)C(=O)c1c(Cl)c(Cl)c(Cl)c(Cl)c1C2=O` was tested. Which IC50 did it give?
**A.** The IC50 was 21 µM.

**Q.** Which IC50 does the source give for `O=C1c2ccccc2C(=O)c2c(O)ccc(O)c21` [QUINIZARIN] here?
**A.** The IC50 was over 100 µM.

**Q.** For `CC(=O)Oc1cccc2c1C(=O)c1c(OC(C)=O)cc(C(=O)O)cc1C2=O` [DIACEREIN], which IC50 is on record?
**A.** Its IC50 is 5.4 µM.

**Q.** `O=C(O)c1ccc2oc3ccccc3c(=O)c2c1` was tested. Which IC50 did it give?
**A.** Its IC50 is 22 µM.

**Q.** Which IC50 does the source give for `Cc1cc(O)c2c(c1)C(=O)c1cccc(O)c1C2=O` [CHRYSOPHANOL] here?
**A.** The IC50 was over 100 µM.

Source: ChEMBL document CHEMBL4811317, “Inhibitory activities of anthraquinone and xanthone derivatives against transthyretin amyloidogenesis” (Bioorg Med Chem, 2021)
